For assay [1], the system named is NHDF. Briefly: (§1) Compound tested for cytotoxic Activity against NHDF cell line. The assay is classed as functional, cell-based. To be noted: Homo sapiens.
In a further assay the test system is HT-29. Briefly: Compound tested for cytotoxic Activity against HT-29 cell line from colon carcinoma. The assay is classed as functional, cell-based. To be noted: Homo sapiens.
Assay [2] relates to CHO. Briefly: (§2) Compound tested for cytotoxic Activity against CHO cell line. The assay is classed as functional, cell-based. To be noted: Cricetulus griseus.
The next assay has as its system OVCAR-3. Briefly: Compound tested for cytotoxic Activity against Ovcar-3 cell line from ovarian carcinoma. The assay is classed as functional, cell-based. The conditions noted are these: Homo sapiens.
The next assay deals with UCLA P-3. Briefly: Compound tested for cytotoxic Activity against UCLA-P3 cell line from lung carcinoma. The conditions noted are these: Homo sapiens. The assay is classed as functional, cell-based.
The test system of another assay is HL-60. Briefly: Compound tested for cytotoxic Activity against HL-60 cell line from promyelocytic leukemia. The assay is classed as functional, cell-based. To be noted: Homo sapiens.
In the next assay the test system is MOLT-4. Briefly: Compound tested for cytotoxic Activity against Molt-4 cell line from T cell leukemia. The assay is classed as functional, cell-based. The conditions noted are these: Homo sapiens.
Another assay relates to MCF7. Briefly: Compound tested for cytotoxic Activity against MCF-7 cell line from breast carcinoma. The assay is classed as functional, cell-based. The conditions noted are these: Homo sapiens.
The next assay deals with P388. Briefly: Compound tested for cytotoxic Activity against P-388 cell line from mouse leukemia. The assay is classed as functional, cell-based.
In the next assay the test system is CAPAN-1. Briefly: Compound tested for cytotoxic Activity against Capan-l cell line from pancreatic carcinoma. To be noted: Homo sapiens. The assay is classed as functional, cell-based.
The subject of assay [3] is H322. Briefly: Compound tested for cytotoxic Activity against H-322 cell line from lung carcinoma. The assay is classed as functional, cell-based. The conditions noted are these: Homo sapiens, NCI-H322.
The next assay has as its system SK-MEL-28. Briefly: Compound tested for cytotoxic Activity against SK-Mel-28 cell line from melanoma. The assay is classed as functional, cell-based. To be noted: Homo sapiens.
Assay [4] relates to H322. Briefly: Compound tested for cytotoxic Activity against H-322 cell line from lung carcinoma; Non toxic. The assay is classed as functional, cell-based, Homo sapiens.
Assay [5] deals with CHO. The assay is described as §2. The assay is classed as cell-based. To be noted: Cricetulus griseus.
Assay [6] deals with NHDF. The description is as §1. The assay is classed as cell-based. The conditions noted are these: Homo sapiens.
Assay [7] deals with CHO. Briefly: Compound tested for cytotoxic Activity against CHO cell line; Not toxic. The assay is classed as functional, cell-based, Cricetulus griseus.
For assay [8], the system named is NHDF. Briefly: Compound tested for cytotoxic Activity against NHDF cell line; Not toxic. The assay is classed as functional, cell-based, Homo sapiens.

As a reminder, the IC50 is the concentration needed to halve the response being measured. Low readings indicate inhibition by little substance, high ones a need for much substance. Regarding `C[C@@H](COC(=O)N1c2ccccc2[C@@]23O[C@]24CCC[C@@H]3C#C/C=C\C#C[C@H]14)S(=O)(=O)c1ccccc1`, the IC50 in the assay with NHDF [1] was 1000 µM; in the assay on HT-29, 0.78 µM; in the assay with CHO [2], 1000 µM; in the assay on OVCAR-3, 3.1 µM; in the assay with UCLA P-3, 3.1 µM; in the assay with HL-60, 0.78 µM. Besides, the half-maximal inhibitory concentration (IC50) was found to be 0.01 µM in the assay with MOLT-4; 25 µM in the assay with MCF7; 1.6 µM with P388; 3.1 µM with CAPAN-1; 13 µM with H322 [3]; 50 µM in the assay on SK-MEL-28.
Regarding `C[C@H](COC(=O)N1c2ccccc2[C@@]23O[C@]24CCC[C@@H]3C#C/C=C\C#C[C@H]14)S(=O)(=O)c1ccccc1`, the IC50 in the assay with NHDF [1] is greater than 1000 µM; in the assay with HT-29 it was 13 µM; with CHO [2], greater than 1000 µM; in the assay on H322 [4] it was “Non-toxic”; in the assay on OVCAR-3 it was 13 µM; with UCLA P-3, 13 µM. The half-inhibitory concentration (IC50) in the assay with HL-60 is 1.6 µM; with MOLT-4 it was 10 µM; in the assay with MCF7, greater than 1000 µM; in the assay with P388, 1.6 µM; in the assay with CAPAN-1 it was 6.3 µM; with SK-MEL-28, greater than 1000 µM.
With `O=C(OCCS(=O)(=O)c1ccccc1)N1c2ccccc2[C@@]23O[C@]24CCC[C@@H]3C#C/C=C\C#C[C@H]14`, the IC50 with HT-29 was 0.39 µM; in the assay with CHO [5], 6.3 µM; with OVCAR-3 it was 0.78 µM; with UCLA P-3, 0.78 µM; in the assay with HL-60 it was 0.098 µM; in the assay with MOLT-4, 1e-05 µM. Besides, the IC50 came out at 3.1 µM in the assay on MCF7; 0.098 µM with P388; 0.078 µM in the assay with CAPAN-1; 6.3 µM in the assay with NHDF [6]; 3.1 µM in the assay on H322 [3]; 63 µM in the assay on SK-MEL-28.
With `CC(C)(COC(=O)N1c2ccccc2[C@@]23O[C@]24CCC[C@@H]3C#C/C=C\C#C[C@H]14)S(=O)(=O)c1ccccc1`, the IC50 result was “Non-toxic” with CHO [7]; 25 µM in the assay on HT-29; 50 µM in the assay on OVCAR-3; 50 µM with UCLA P-3; 25 µM in the assay with HL-60; “Non-toxic” in the assay on NHDF [8]. Moreover, the IC50 in the assay on MOLT-4 is 1000 µM; with MCF7, 25 µM; in the assay with P388 it was 13 µM; in the assay with CAPAN-1, 50 µM; with H322 [3], 50 µM; with SK-MEL-28, less than 1000 µM.
